We go through two compounds from patent publication US5053006A, “Method for the permanent occlusion of arteries” (priority 1990, dated 1991).

Series [1] in a line: Absorption / excitation of the dye in tissue. It is filed as physicochemical. To be noted: endothelial tissue. From the text: Examples of lasers that can be used to provide the light beam include the He-Ne laser, the argon ion laser and the argon-pumped dye laser. The 543.5 nm He-Ne laser, for example, can excite rose bengal with an efficiency of 58% of the maximum. (The wavelength at which excitation efficiency for rose bengal is maximal in tissue occurs at 562 nm.) Because the maximum theoretical power output is only 4 or 5 milliwatts, the 543.5 nm He-Ne laser is not used in clinical applications at this time. However, this laser is expected to be particularly useful in permanently occluding relatively low-flow arteries, smaller than about 200 μm, such as those in the choroid of the eye.
The argon ion laser is the most common clinical laser used at this time. Although the commonly used argon 514.5 nm line is only 36% efficient with respect to the maximum of rose bengal absorption, this laser is much more powerful (by at least a factor of 1000) and versatile than the He-Ne laser.
The absorption maximum of erythrosin B in endothelial tissue is at 536 nm, which is closer than that of rose bengal to the standard 514.5 nm wavelength of the argon ion laser.

In the next series the test system is middle cerebral artery. As to the kind of experiment: Erythrosin B photothrombotic occlusion of middle cerebral artery. It is filed as in vivo, rat.
The conditions of series [2]: compared with rose bengal; cited from earlier work.
For series [3] the following is noted: in vivo; cited from earlier work.

On to `O.O=C([O-])c1ccccc1-c1c2cc(I)c(=O)c(I)c-2oc2c(I)c([O-])c(I)cc12.[Na+].[Na+]` [erythrosin B], for which the “absorption maximum in endothelial tissue” value in series [1] is on record as 536 nm. In addition, the “photothrombotic efficiency in vivo” value with middle cerebral artery (514.5 nm argon line, vs rose bengal) was “comparable photothrombotic efficiency”. The “photothrombotic occlusion of rat MCA” value in the series on middle cerebral artery (i.v., argon ion laser, 680 μM blood concentration) is recorded as “photothrombotically occlude the rat middle cerebral artery in the same fashion as rose bengal”. Also, in series [2], the “quantum efficiency for singlet oxygen production” value is “slightly less”.
Regarding “dihematoporphyrin ether [dihematoporphyrin ether derivative]”, the half life result in series [3] is on record as “so long”.
